Data on 4 compounds can be found in patent US6294537A, “Compounds which are specific antagonists of the human NK3 receptor and their use as medicinal products and diagnostic tools” (Sanofi-Synthelabo, priority 1999, dated 2001).

The Ki is a dissociation constant, usually derived from enzyme kinetics or from competition with a known ligand.

One experiment has as its target T1, human NK3 receptor (Homo sapiens, UniProt P29371).
T1 construct: expressed in transfected cells; host or cells: CHO cells
T1 sequence (P29371 1-465): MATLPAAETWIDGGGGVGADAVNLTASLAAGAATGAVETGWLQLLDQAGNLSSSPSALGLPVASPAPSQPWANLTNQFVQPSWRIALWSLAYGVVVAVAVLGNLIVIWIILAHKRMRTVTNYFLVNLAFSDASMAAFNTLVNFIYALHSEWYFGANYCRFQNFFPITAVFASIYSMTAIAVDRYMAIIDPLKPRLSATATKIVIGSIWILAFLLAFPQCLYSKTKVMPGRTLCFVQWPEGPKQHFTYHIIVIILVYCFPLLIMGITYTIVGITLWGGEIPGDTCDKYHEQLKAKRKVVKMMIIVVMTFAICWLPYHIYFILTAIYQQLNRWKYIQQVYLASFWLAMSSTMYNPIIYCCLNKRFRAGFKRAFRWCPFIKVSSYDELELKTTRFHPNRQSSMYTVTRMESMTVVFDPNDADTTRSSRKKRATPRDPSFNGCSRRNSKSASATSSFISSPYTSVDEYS
Description: Binding of [125I]His[MePhe7]NKB to cloned human NK3 receptors expressed by CHO cells. Conditions: for Ki: cloned human NK3 receptors expressed by CHO cells, read-out: inhibition constant Ki, human NK3 receptor; for selectivity / specificity for the human NK3 receptor: from Ki at human NK3 versus rat NK2/NK1 receptors. Here is the method:
(§1) The affinity of the compounds of formula (I') for the tachykinin receptors was evaluated in vitro by several biochemical assays using radioligands:
(§2) 3) The binding of [^125 I]His[MePhe^7 ]NKB to the NK3 receptors of rat cerebral cortex, of guinea pig cerebral cortex and of gerbil cerebral cortex as well as to the cloned human NK3 receptors expressed by CHO cells (Buell et al., FEBS Letters, 1992, 299, 90-95).
(§3) The assays were carried out according to X. Emonds-Alt et al. (Eur. J. Pharmacol., 1993, 250, 403-413).

The target of experiment [1] is T2, NK2 receptor of rat duodenum (Rattus norvegicus, UniProt P16610).
T2 construct: NK2 receptors of rat duodenum; from tissue; host or cells: rat duodenum
T2 sequence (P16610 1-390): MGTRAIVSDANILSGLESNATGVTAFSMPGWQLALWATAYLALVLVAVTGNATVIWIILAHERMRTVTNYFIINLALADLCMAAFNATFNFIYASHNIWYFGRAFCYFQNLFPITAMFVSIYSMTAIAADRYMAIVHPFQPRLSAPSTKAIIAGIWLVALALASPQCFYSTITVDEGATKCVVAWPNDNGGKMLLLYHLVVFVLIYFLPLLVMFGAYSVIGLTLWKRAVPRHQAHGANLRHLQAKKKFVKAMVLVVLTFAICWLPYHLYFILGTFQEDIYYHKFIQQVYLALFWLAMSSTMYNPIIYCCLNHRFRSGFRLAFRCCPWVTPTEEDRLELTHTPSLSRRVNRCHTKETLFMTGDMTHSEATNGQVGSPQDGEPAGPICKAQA
Briefly: Binding of [125I]His-NKA to NK2 receptors of rat duodenum. Particulars: read-out: inhibition constant Ki, rat duodenum NK2 receptor. Here is the method: as §1
2) The binding of [^125 I]His-NKA to the NK2 receptors of rat duodenum or of guinea pig ileum.
as §3

For experiment [2], the target named is T3, NK1 receptors of rat cortex (Rattus norvegicus, UniProt P14600).
T3 construct: NK1 receptors of rat cortex; from tissue; host or cells: rat cortex
Briefly: Binding of [125I]BH-SP to NK1 receptors of rat cortex. Conditions: read-out: inhibition constant Ki, rat cortex NK1 receptor. Here is the method:
as §1
1) The binding of [^125 I]BH-SP (substance P labeled with iodine 125 with the aid of the Bolton-Hunter reagent) to the NK1 receptors of rat cortex, of guinea pig ileum and of human lymphoblastic cells.
as §3

The subject of experiment [3] is rat NK3 receptor. Conditions: literature, J. Autonomic Pharmacol. 1993; cited from earlier work.
Experiment [4] concerns NK3 receptor. Description: Hypertension induced in guinea pigs by intravenous or intracerebroventricular senktide. Format: in vivo. Conditions: guinea pig; intravenous or intracerebroventricular injection. Here is the method: (§4) The compounds according to the present invention were also evaluated in vivo on two animal models.
Experiment [5] relates to NK3 receptor. Briefly: Rotating behavior induced in gerbils by intrastriatal senktide. Conditions: gerbil; unilateral application in the striatum. Format: in vivo. Here is the method:
as §4

Experiment [6] has as its target rat NK3 receptor. Conditions: Patent Application EP 512901; read-out: Ki, antagonizes the binding of eledoisin; cited from earlier work.
The target in experiment [7] is T4, NK3 receptors of rat cerebral cortex (Rattus norvegicus, UniProt P16177).
T4 construct: NK3 receptors of rat cerebral cortex; from tissue; host or cells: rat cerebral cortex
T4 sequence (P16177 1-452): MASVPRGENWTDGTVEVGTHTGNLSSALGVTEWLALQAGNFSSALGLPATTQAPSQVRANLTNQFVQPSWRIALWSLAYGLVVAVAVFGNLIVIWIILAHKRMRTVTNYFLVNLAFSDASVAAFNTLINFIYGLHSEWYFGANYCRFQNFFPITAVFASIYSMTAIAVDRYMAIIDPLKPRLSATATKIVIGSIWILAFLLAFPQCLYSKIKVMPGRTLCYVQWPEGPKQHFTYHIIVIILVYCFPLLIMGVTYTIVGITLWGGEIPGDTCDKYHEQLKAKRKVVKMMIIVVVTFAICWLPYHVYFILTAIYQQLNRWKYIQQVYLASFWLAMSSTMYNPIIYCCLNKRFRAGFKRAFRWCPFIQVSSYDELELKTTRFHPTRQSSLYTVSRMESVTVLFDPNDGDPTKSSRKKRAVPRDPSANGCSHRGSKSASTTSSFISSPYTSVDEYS
Briefly: Binding of [125I]His[MePhe7]NKB to NK3 receptors of rat cerebral cortex. Particulars: read-out: inhibition constant Ki, rat NK3 receptor. Here is the method: as §1, §2, §3

Residues, ends and D or L forms follow the SMILES beside them. No end group written: not given here.

T3 sequence (P14600 whole entry): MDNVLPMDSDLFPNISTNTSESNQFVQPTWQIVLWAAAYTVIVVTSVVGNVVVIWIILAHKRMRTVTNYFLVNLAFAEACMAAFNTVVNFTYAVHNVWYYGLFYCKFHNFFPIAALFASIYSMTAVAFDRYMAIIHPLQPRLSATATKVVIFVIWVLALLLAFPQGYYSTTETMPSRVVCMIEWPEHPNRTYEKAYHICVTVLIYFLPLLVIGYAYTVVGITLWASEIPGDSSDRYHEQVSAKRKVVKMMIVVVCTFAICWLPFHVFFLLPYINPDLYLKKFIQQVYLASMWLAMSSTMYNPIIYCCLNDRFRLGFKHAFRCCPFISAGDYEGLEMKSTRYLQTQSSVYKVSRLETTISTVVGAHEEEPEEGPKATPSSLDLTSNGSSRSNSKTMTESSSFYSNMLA

As for `CN(CC(CCCN1CCC(O)(c2ccccc2)CC1)c1ccc(Cl)c(Cl)c1)C(=O)c1ccccc1.Cl` (stereo not drawn) [Example 1, N-Methyl-N-[2-(3,4-dichlorophenyl)-5-(4-hydroxy-4-phenylpiperid-1-yl)pentyl]benzamide hydrochloride], the Ki amounted to 5 nM on human NK3 receptor, 500 nM in experiment [1] and 500 nM in experiment [2]. Also, the “selectivity / specificity for the human NK3 receptor” value at human NK3 receptor is given as “high specificity”.

As for “[Trp^7, Ala^8 ]NKA: A peptide antagonist, weakly specific for rat NK3 receptor (HKTDSFWALM; ends and bridges not checked; UniProt P20366 98-107, looked up, variant V7W G8A)”, in the experiment on rat NK3 receptor [3], the “specificity for rat NK3 receptor” value is “weakly specific”.

Turning to `CSCC[C@H](NC(=O)[C@H](CC(C)C)NC(=O)CNC(=O)[C@H](Cc1ccccc1)N(C)C(=O)[C@H](Cc1ccccc1)NC(=O)[C@H](CC(=O)O)NC(=O)CCC(=O)O)C(N)=O` [senktide] (HELM PEPTIDE1{[O=C(O)CCC(=O)[*:2]].D.F.[meF].G.L.M.[am]}$$$$V2.0), the “hypertension induced by senktide” value in the experiment on NK3 receptor [4] is listed as “induces a hypertension”. Further, in the experiment with NK3 receptor [5], the “contralateral rotations induced by senktide” value is “strong contralateral rotations”.

`Cl.O=C1CCC(CCN2CCC(O)(c3ccccc3)CC2)(c2ccc(Cl)c(Cl)c2)CN1Cc1ccccc1` (stereo not drawn) [compound A, 5-[2-(4-hydroxy-4-phenylpiperid-1-yl)ethyl]-5-(3,4-dichlorophenyl)-1-benzylpiperid-2-one hydrochloride]: the Ki is 1 nM at human NK3 receptor, 0.1 nM in experiment [1], 200 nM on rat NK3 receptor [6] and 100 nM in experiment [7]. At human NK3 receptor, the “selectivity / specificity for the human NK3 receptor” value is listed as “not selective”.
